Earlier results on two molecules are cited in patent publication US20110042247A1 (priority 2009, published 2011).

Read-outs that look alike come from different tables or passages of the source.

In the case of `Nc1ncn([C@H]2C[C@H](O)[C@@H](CO)O2)c(=O)n1` [Decitabine, 4-amino-1-(2-deoxy-β-D-erythro-pentofuranosyl)-1,3,5-triazin-2(1H)-one], the Solubility result is “soluble” (dimethylsulphoxide (DMSO)); “slightly soluble” (ethanol and water (50:50)); “slightly soluble” (methanol); “slightly soluble” (methanol/water (50/50)); “sparingly soluble” (water).

Consider `Nc1ncn([C@@H]2O[C@H](CO)[C@@H](O)[C@H]2O)c(=O)n1` [Azacitidine, 4-amino-1-β-D-ribofuranosyl-1,3,5-triazin-2(1H)-one], for which the Solubility entry is “sparingly soluble” (5% Tween 80 in water); “sparingly soluble” (5% dextrose in water); “sparingly soluble” (N-methylpyrrolidone); “insoluble” (acetone); “soluble” (dimethylsulphoxide (DMSO)); “insoluble” (ethanol). For the same molecule, the Solubility entry runs as follows: (ethanol and water (50:50)) “slightly soluble”; (methyl ethyl ketone) “insoluble”; (normal saline) “sparingly soluble”; (polyethylene glycol) “slightly soluble”; (propylene glycol) “slightly soluble”; (water) “sparingly soluble”. Also, the Solubility entry (water saturated octanol) is given as “sparingly soluble”.
